Publication PMC5622171 (Nature Communications, 2017)

Columns and labels:
Assay in all cases: KINOMEscan kinase profiling
Type in all cases: binding
ABL1-nonphosphorylated = molecular target: T1, ABL1-nonphosphorylated (Homo sapiens, UniProt P00519); conditions: read-out: %Inhibition by 10 μM SPA70
T1 construct: purchased DiscoverX (Ambit Biosciences) KINOMEscan
Summary of the method: (§1)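 KINOMEscan profiling followed a published protocol. Kinases whose inhibition exceeded a set cut-off were then tested in a dilution series beginning at 30 µM.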

ABL2 = molecular target: T2, ABL2 (Homo sapiens, UniProt P42684); conditions: read-out: %Inhibition by 10 μM SPA70
T2 construct: purchased DiscoverX (Ambit Biosciences) KINOMEscan
Summary of the method: as §1

ACVR2A = molecular target: T3, ACVR2A (Homo sapiens, UniProt P27037); conditions: read-out: %Inhibition by 10 μM SPA70
T3 construct: purchased DiscoverX (Ambit Biosciences) KINOMEscan
Summary of the method: as §1

AKT2 = molecular target: T4, AKT2 (Homo sapiens, UniProt P31751); conditions: read-out: %Inhibition by 10 μM SPA70
T4 construct: purchased DiscoverX (Ambit Biosciences) KINOMEscan
Summary of the method: as §1

AMPK-alpha2 = molecular target: T5, AMPK-alpha2 (Homo sapiens, UniProt P54646); conditions: read-out: %Inhibition by 10 μM SPA70
T5 construct: purchased DiscoverX (Ambit Biosciences) KINOMEscan
Summary of the method: as §1

AURKA = molecular target: T6, AURKA (Homo sapiens, UniProt O14965); conditions: read-out: %Inhibition by 10 μM SPA70
T6 construct: purchased DiscoverX (Ambit Biosciences) KINOMEscan
Summary of the method: as §1

AURKB = molecular target: T7, AURKB (Homo sapiens, UniProt Q96GD4); conditions: read-out: %Inhibition by 10 μM SPA70
T7 construct: purchased DiscoverX (Ambit Biosciences) KINOMEscan
T7 sequence (Q96GD4 whole entry): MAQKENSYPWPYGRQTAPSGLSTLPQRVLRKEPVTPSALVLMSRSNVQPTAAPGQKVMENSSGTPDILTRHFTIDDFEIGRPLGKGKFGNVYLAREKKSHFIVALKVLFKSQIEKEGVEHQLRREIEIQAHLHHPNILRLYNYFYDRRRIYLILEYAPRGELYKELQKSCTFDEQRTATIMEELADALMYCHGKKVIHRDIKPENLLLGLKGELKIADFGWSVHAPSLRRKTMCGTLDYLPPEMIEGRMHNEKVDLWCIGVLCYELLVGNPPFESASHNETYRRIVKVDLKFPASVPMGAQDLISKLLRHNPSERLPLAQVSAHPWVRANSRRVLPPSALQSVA
Summary of the method: as §1

CAMK2D = molecular target: T8, CAMK2D (Homo sapiens, UniProt Q13557); conditions: read-out: %Inhibition by 10 μM SPA70
T8 construct: purchased DiscoverX (Ambit Biosciences) KINOMEscan
Summary of the method: as §1

CDK9 = molecular target: T9, CDK9 (Homo sapiens, UniProt P50750); conditions: read-out: %Inhibition by 10 μM SPA70
T9 construct: purchased DiscoverX (Ambit Biosciences) KINOMEscan
T9 sequence (P50750 whole entry): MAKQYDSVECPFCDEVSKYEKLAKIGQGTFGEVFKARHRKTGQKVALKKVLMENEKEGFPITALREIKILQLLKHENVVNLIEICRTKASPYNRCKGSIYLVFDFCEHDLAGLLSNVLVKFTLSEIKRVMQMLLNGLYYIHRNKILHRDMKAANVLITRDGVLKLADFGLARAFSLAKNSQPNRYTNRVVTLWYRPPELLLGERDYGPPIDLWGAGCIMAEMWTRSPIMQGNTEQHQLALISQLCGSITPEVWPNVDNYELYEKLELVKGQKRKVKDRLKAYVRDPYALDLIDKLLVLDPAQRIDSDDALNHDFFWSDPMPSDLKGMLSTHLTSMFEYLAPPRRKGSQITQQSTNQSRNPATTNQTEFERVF
Summary of the method: as §1

CSK = molecular target: T10, CSK (Homo sapiens, UniProt P41240)
T10 construct: purchased DiscoverX (Ambit Biosciences) KINOMEscan
Summary of the method: as §1

CTK = molecular target: T11, CTK (Homo sapiens, UniProt P42679); conditions: read-out: %Inhibition by 10 μM SPA70
T11 construct: purchased DiscoverX (Ambit Biosciences) KINOMEscan
Summary of the method: as §1

DAPK3 = molecular target: T12, DAPK3 (Homo sapiens, UniProt O43293); conditions: read-out: %Inhibition by 10 μM SPA70
T12 construct: purchased DiscoverX (Ambit Biosciences) KINOMEscan
T12 sequence (O43293 whole entry): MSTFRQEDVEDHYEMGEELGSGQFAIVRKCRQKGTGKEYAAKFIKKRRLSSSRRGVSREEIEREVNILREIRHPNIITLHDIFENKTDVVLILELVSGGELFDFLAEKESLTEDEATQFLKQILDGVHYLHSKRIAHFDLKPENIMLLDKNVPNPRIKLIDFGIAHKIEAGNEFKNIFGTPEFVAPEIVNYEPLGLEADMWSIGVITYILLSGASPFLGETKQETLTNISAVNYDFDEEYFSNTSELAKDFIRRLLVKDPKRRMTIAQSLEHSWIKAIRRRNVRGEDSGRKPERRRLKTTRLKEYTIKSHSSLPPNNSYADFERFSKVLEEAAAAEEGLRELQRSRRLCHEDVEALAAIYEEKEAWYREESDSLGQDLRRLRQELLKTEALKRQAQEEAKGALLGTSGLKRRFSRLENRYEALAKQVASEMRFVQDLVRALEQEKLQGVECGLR
Summary of the method: as §1

DRAK1 = molecular target: T13, DRAK1 (Homo sapiens, UniProt Q9UEE5); conditions: read-out: %Inhibition by 10 μM SPA70
T13 construct: purchased DiscoverX (Ambit Biosciences) KINOMEscan
Summary of the method: as §1

DYRK1B = molecular target: T14, DYRK1B (Homo sapiens, UniProt Q9Y463); conditions: read-out: %Inhibition by 10 μM SPA70
T14 construct: purchased DiscoverX (Ambit Biosciences) KINOMEscan
T14 sequence (Q9Y463 whole entry): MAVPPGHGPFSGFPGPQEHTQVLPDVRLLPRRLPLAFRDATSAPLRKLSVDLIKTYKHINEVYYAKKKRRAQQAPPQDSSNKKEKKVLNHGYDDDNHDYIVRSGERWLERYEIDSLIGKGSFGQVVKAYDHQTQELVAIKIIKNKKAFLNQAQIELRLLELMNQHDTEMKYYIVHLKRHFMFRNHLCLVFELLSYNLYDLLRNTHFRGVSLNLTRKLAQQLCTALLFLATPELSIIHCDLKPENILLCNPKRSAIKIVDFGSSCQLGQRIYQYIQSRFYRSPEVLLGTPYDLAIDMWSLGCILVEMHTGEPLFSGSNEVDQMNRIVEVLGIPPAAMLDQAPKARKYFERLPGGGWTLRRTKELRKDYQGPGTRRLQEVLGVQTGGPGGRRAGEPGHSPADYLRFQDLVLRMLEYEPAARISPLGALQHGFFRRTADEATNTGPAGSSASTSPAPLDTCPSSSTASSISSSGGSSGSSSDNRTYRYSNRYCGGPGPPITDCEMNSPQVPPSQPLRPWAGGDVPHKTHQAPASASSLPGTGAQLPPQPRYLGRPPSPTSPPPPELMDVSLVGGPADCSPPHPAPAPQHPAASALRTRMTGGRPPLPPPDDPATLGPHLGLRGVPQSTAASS
Summary of the method: as §1

EPHA1 = molecular target: T15, EPHA1 (Homo sapiens, UniProt P21709); conditions: read-out: %Inhibition by 10 μM SPA70
T15 construct: purchased DiscoverX (Ambit Biosciences) KINOMEscan
Summary of the method: as §1

EPHB3 = molecular target: T16, EPHB3 (Homo sapiens, UniProt P54753); conditions: read-out: %Inhibition by 10 μM SPA70
T16 construct: purchased DiscoverX (Ambit Biosciences) KINOMEscan
Summary of the method: as §1

ERK1 = molecular target: T17, ERK1 (Homo sapiens, UniProt P27361); conditions: read-out: %Inhibition by 10 μM SPA70
T17 construct: purchased DiscoverX (Ambit Biosciences) KINOMEscan
Summary of the method: as §1

FGFR1 = molecular target: T18, FGFR1 (Homo sapiens, UniProt P11362); conditions: read-out: %Inhibition by 10 μM SPA70
T18 construct: purchased DiscoverX (Ambit Biosciences) KINOMEscan
T18 sequence (P11362 22-822): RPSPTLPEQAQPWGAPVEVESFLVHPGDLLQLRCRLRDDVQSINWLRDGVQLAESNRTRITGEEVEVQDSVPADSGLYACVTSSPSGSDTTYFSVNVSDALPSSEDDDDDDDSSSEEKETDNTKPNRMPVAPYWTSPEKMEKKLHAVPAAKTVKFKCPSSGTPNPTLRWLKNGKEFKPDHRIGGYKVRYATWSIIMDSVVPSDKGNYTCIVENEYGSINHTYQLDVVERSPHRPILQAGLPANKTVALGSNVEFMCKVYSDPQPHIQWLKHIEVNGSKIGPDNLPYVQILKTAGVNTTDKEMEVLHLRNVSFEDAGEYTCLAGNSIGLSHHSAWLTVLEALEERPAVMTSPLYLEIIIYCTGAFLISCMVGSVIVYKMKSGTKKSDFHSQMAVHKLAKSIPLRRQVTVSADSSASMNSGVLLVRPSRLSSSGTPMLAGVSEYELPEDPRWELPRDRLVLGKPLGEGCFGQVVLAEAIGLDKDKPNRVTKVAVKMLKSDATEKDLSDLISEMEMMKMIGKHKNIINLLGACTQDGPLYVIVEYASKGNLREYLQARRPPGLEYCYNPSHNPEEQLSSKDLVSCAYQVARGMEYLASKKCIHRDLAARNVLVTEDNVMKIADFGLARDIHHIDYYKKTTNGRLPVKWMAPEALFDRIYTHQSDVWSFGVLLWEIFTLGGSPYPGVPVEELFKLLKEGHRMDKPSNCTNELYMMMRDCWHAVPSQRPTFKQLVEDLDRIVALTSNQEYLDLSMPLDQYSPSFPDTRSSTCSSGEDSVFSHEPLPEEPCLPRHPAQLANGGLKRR
Summary of the method: as §1

GRK1 = molecular target: T19, GRK1 (Homo sapiens, UniProt Q15835); conditions: read-out: %Inhibition by 10 μM SPA70
T19 construct: purchased DiscoverX (Ambit Biosciences) KINOMEscan
T19 sequence (Q15835 whole entry): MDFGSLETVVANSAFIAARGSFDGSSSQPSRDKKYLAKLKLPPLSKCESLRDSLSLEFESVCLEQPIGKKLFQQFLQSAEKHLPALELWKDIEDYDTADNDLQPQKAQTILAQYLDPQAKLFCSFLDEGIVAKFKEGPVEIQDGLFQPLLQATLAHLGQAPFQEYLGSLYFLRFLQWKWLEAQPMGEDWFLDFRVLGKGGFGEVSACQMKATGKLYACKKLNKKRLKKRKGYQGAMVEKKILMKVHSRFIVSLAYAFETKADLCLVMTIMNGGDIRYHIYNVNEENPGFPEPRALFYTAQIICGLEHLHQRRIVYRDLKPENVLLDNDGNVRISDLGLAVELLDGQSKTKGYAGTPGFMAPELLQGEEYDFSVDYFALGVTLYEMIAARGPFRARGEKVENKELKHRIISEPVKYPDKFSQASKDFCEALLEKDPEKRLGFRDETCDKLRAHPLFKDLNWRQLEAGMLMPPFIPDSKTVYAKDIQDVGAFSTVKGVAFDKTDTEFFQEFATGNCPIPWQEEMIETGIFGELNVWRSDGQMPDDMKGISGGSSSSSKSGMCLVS
Summary of the method: as §1

IKK-epsilon = molecular target: T20, IKK-epsilon (Homo sapiens, UniProt Q14164); conditions: read-out: %Inhibition by 10 μM SPA70
T20 construct: purchased DiscoverX (Ambit Biosciences) KINOMEscan
Summary of the method: as §1

LIMK1 = molecular target: T21, LIMK1 (Homo sapiens, UniProt P53667); conditions: read-out: %Inhibition by 10 μM SPA70
T21 construct: purchased DiscoverX (Ambit Biosciences) KINOMEscan
Summary of the method: as §1

MAPKAPK2 = molecular target: T22, MAPKAPK2 (Homo sapiens, UniProt P49137); conditions: read-out: %Inhibition by 10 μM SPA70
T22 construct: purchased DiscoverX (Ambit Biosciences) KINOMEscan
Summary of the method: as §1

MAST1 = molecular target: T23, MAST1 (Homo sapiens, UniProt Q9Y2H9); conditions: read-out: %Inhibition by 10 μM SPA70
T23 construct: purchased DiscoverX (Ambit Biosciences) KINOMEscan
Summary of the method: as §1

MINK = molecular target: T24, MINK (Homo sapiens, UniProt Q8N4C8); conditions: read-out: %Inhibition by 10 μM SPA70
T24 construct: purchased DiscoverX (Ambit Biosciences) KINOMEscan
T24 sequence (Q8N4C8 whole entry): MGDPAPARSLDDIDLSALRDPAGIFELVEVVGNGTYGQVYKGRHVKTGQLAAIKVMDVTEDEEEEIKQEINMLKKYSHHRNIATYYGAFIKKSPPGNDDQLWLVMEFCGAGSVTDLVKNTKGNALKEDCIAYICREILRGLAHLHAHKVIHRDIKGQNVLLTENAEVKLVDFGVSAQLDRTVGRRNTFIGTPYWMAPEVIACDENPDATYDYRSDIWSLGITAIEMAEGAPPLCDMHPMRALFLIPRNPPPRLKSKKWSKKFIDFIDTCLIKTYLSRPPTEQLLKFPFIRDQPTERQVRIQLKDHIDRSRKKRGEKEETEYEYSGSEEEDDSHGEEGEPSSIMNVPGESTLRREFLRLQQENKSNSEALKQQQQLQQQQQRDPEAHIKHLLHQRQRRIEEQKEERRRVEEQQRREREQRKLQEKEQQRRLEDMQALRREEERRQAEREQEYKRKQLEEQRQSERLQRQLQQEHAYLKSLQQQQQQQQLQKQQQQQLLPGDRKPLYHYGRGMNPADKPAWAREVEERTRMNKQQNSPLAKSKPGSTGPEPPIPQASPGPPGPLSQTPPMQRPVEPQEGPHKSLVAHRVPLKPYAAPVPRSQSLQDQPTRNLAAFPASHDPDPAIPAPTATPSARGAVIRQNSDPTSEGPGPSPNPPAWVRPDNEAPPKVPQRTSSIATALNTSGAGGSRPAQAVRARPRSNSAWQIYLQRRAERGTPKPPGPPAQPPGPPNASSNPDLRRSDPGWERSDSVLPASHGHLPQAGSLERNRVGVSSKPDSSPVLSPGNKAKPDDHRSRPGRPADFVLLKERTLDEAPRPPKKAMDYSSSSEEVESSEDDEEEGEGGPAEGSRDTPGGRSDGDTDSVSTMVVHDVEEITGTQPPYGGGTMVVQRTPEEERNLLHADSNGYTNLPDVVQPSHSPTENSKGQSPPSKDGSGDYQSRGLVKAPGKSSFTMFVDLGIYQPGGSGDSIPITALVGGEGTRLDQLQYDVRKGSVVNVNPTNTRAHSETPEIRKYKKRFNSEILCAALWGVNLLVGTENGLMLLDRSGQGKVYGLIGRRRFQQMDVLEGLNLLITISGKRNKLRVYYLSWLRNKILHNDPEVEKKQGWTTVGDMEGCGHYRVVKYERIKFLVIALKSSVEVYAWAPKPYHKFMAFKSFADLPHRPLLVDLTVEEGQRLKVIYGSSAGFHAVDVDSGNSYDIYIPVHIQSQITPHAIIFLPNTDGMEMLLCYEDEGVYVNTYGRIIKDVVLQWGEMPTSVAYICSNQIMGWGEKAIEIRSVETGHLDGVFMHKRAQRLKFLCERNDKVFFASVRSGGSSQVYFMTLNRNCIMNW
Summary of the method: as §1

MLK1 = molecular target: T25, MLK1 (Homo sapiens, UniProt P80192); conditions: read-out: %Inhibition by 10 μM SPA70
T25 construct: purchased DiscoverX (Ambit Biosciences) KINOMEscan
Summary of the method: as §1

MLK3 = molecular target: T26, MLK3 (Homo sapiens, UniProt Q16584)
T26 construct: purchased DiscoverX (Ambit Biosciences) KINOMEscan
Summary of the method: as §1

MST3 = molecular target: T27, MST3 (Homo sapiens, UniProt Q9Y6E0)
T27 construct: purchased DiscoverX (Ambit Biosciences) KINOMEscan
Summary of the method: as §1

NLK = molecular target: T28, NLK (Homo sapiens, UniProt Q9UBE8); conditions: read-out: %Inhibition by 10 μM SPA70
T28 construct: purchased DiscoverX (Ambit Biosciences) KINOMEscan
Summary of the method: as §1

PIK4CB = molecular target: T29, PIK4CB (Homo sapiens, UniProt Q9UBF8); conditions: read-out: %Inhibition by 10 μM SPA70
T29 construct: purchased DiscoverX (Ambit Biosciences) KINOMEscan
Summary of the method: as §1

PRKCE = molecular target: T30, PRKCE (Homo sapiens, UniProt Q02156); conditions: read-out: %Inhibition by 10 μM SPA70
T30 construct: purchased DiscoverX (Ambit Biosciences) KINOMEscan
Summary of the method: as §1

RIOK2 = molecular target: T31, RIOK2 (Homo sapiens, UniProt Q9BVS4); conditions: read-out: %Inhibition by 10 μM SPA70
T31 construct: purchased DiscoverX (Ambit Biosciences) KINOMEscan
Summary of the method: as §1

[1] = molecular target: T32, RPS6KA4(Kin.Dom.1-N-terminal) (Homo sapiens, UniProt O75676); conditions: read-out: %Inhibition by 10 μM SPA70
T32 construct: RPS6KA4(Kin.Dom.1-N-terminal); purchased DiscoverX (Ambit Biosciences) KINOMEscan
Summary of the method: as §1

TIE2 = molecular target: T33, TIE2 (Homo sapiens, UniProt Q02763); conditions: read-out: %Inhibition by 10 μM SPA70
T33 construct: purchased DiscoverX (Ambit Biosciences) KINOMEscan
Summary of the method: as §1

TNIK = molecular target: T34, TNIK (Homo sapiens, UniProt Q9UKE5); conditions: read-out: %Inhibition by 10 μM SPA70
T34 construct: purchased DiscoverX (Ambit Biosciences) KINOMEscan
Summary of the method: as §1

TNNI3K = molecular target: T35, TNNI3K (Homo sapiens, UniProt Q59H18); conditions: read-out: %Inhibition by 10 μM SPA70
T35 construct: purchased DiscoverX (Ambit Biosciences) KINOMEscan
Summary of the method: as §1

TRKB = molecular target: T36, TRKB (Homo sapiens, UniProt Q16620); conditions: read-out: %Inhibition by 10 μM SPA70
T36 construct: purchased DiscoverX (Ambit Biosciences) KINOMEscan
Summary of the method: as §1

TTK = molecular target: T37, TTK (Homo sapiens, UniProt P33981); conditions: read-out: %Inhibition by 10 μM SPA70
T37 construct: purchased DiscoverX (Ambit Biosciences) KINOMEscan
Summary of the method: as §1

TXK = molecular target: T38, TXK (Homo sapiens, UniProt P42681); conditions: read-out: %Inhibition by 10 μM SPA70
T38 construct: purchased DiscoverX (Ambit Biosciences) KINOMEscan
Summary of the method: as §1

ULK3 = molecular target: T39, ULK3 (Homo sapiens, UniProt Q6PHR2)
T39 construct: purchased DiscoverX (Ambit Biosciences) KINOMEscan
T39 sequence (Q6PHR2 whole entry): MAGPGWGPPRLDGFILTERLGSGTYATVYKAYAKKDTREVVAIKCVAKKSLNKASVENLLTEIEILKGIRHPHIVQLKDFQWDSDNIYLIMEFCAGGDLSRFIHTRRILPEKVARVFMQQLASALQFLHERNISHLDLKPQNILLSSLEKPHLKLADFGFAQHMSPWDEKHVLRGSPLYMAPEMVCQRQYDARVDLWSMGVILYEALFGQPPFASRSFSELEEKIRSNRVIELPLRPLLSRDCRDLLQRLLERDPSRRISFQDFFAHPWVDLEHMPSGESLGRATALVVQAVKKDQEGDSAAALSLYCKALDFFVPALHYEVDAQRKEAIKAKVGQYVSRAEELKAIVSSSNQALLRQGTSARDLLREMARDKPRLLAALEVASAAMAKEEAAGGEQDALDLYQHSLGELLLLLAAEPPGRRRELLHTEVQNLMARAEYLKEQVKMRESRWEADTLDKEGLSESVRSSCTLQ
Summary of the method: as §1

ZAK = molecular target: T40, ZAK (Homo sapiens, UniProt Q9NYL2); conditions: read-out: %Inhibition by 10 μM SPA70
T40 construct: purchased DiscoverX (Ambit Biosciences) KINOMEscan
Summary of the method: as §1

p38-alpha = molecular target: T41, p38-alpha (Homo sapiens, UniProt Q16539)
T41 construct: purchased DiscoverX (Ambit Biosciences) KINOMEscan
Summary of the method: as §1

p38-beta = molecular target: T42, p38-beta (Homo sapiens, UniProt Q15759); conditions: read-out: %Inhibition by 10 μM SPA70
T42 construct: purchased DiscoverX (Ambit Biosciences) KINOMEscan
Summary of the method: as §1

COc1ccc(OC)c(-n2nnc(S(=O)(=O)c3ccc(C(C)(C)C)cc3)c2C)c1 [SPA70]
9%: inhibition at 10 µM (AMPK-alpha2) | %Inhibition by 10 μM SPA70 (CSK)
7%: inhibition at 10 µM (DRAK1)
20%: inhibition at 10 µM (MAPKAPK2)
8%: inhibition at 10 µM (AURKB)
18%: %Inhibition by 10 μM SPA70 (MLK3)
27%: inhibition at 10 µM (PIK4CB)
10%: inhibition at 10 µM (TNIK)
16%: inhibition at 10 µM (NLK)
2%: %Inhibition by 10 μM SPA70 (ULK3)
0%: inhibition at 10 µM (ABL1-nonphosphorylated) | inhibition at 10 µM (ABL2) | inhibition at 10 µM (ACVR2A) | inhibition at 10 µM (AKT2) | inhibition at 10 µM (AURKA) | inhibition at 10 µM (CAMK2D) | inhibition at 10 µM (CDK9) | inhibition at 10 µM (DAPK3) | inhibition at 10 µM (DYRK1B) | inhibition at 10 µM (EPHA1) | inhibition at 10 µM (EPHB3) | inhibition at 10 µM (ERK1) | inhibition at 10 µM (FGFR1) | inhibition at 10 µM (GRK1) | inhibition at 10 µM (IKK-epsilon) | inhibition at 10 µM (LIMK1) | inhibition at 10 µM (MAST1) | inhibition at 10 µM (MINK) | inhibition at 10 µM (MLK1) | %Inhibition by 10 μM SPA70 (MST3) | inhibition at 10 µM (PRKCE) | inhibition at 10 µM (RIOK2) | inhibition at 10 µM [1] | inhibition at 10 µM (TIE2) | inhibition at 10 µM (TNNI3K) | inhibition at 10 µM (TRKB) | inhibition at 10 µM (TTK) | inhibition at 10 µM (TXK) | inhibition at 10 µM (ZAK) | %Inhibition by 10 μM SPA70 (p38-alpha) | inhibition at 10 µM (p38-beta)
6%: inhibition at 10 µM (CTK)
